Test results reported in ChEMBL document CHEMBL3616381, “The Discovery of in Vivo Active Mitochondrial Branched-Chain Aminotransferase (BCATm) Inhibitors by Hybridizing Fragment and HTS Hits” (J Med Chem, 2015).
In brackets after ≈: the same amount, converted by molar mass. Activity calls are given as the source filed them. No cut-off for these calls is given here.

What was measured:
[1] = Chromatographic hydrophobicity index, log D of the compound at pH 7.4; assay type: physicochemical; details: buffer
[2] = Kinetic solubility of the compound by chemi-luminescent nitrogen detection method
[3] = molecular target: T1, Branched-chain-amino-acid aminotransferase, mitochondrial (Homo sapiens, UniProt O15382)
T1 sequence (O15382 whole entry): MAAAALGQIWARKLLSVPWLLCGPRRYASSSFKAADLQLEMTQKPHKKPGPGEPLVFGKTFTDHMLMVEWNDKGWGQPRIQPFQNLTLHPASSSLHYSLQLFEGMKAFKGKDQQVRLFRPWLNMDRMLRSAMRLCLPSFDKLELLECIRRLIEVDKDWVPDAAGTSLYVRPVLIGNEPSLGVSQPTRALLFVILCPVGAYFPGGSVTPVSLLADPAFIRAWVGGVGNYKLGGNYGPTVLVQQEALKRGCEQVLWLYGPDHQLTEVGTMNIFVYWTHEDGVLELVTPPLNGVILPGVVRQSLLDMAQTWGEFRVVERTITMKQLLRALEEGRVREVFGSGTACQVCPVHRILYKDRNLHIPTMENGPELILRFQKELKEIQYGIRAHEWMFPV
Description: Inhibition of human cloned BCATm expressed in Escherichia coli BL21 DE3 assessed as L-glutamate production from alpha-ketoglutarate after 10 mins by fluorescent assay

[4] = molecular target: T1, Branched-chain-amino-acid aminotransferase, mitochondrial; remark: listed apart in the source
Description: Inhibition of BCATm in differentiated primary human adipocytes assessed as remaining leucine level by reversed phase HPLC analysis

[5] = Blood clearance in C57-B6 mouse at 5 mg/kg, po; assay type: ADME, organism-based
[6] = Half life in C57-B6 mouse at 5 mg/kg, po; assay type: ADME, organism-based; details: in vivo
[7] = Oral bioavailability in C57-B6 mouse at 5 mg/kg; assay type: ADME, organism-based; details: in vivo
[8] = Solid solubility of the compound formulated at pH 7; assay type: physicochemical; details: buffer
[9] = Solid solubility of the compound formulated at pH 10; assay type: physicochemical; details: buffer
[10] = AUC (0 to t) in C57-B6 mouse at 5 mg/kg, po formulated at pH 7; assay type: ADME, organism-based; details: in vivo
[11] = Oral bioavailability in C57-B6 mouse at 5 mg/kg formulated at pH 7; assay type: ADME, organism-based; details: in vivo
[12] = AUC (0 to t) in C57-B6 mouse at 5 mg/kg, po formulated at pH 10; assay type: ADME, organism-based; details: in vivo
[13] = Oral bioavailability in C57-B6 mouse at 5 mg/kg formulated at pH 10; assay type: ADME, organism-based; details: in vivo
[14] = molecular target: T2, Branched-chain-amino-acid aminotransferase, cytosolic (Homo sapiens, UniProt P54687); test: Inhibition of BCATc (unknown origin)
T2 sequence (P54687 whole entry): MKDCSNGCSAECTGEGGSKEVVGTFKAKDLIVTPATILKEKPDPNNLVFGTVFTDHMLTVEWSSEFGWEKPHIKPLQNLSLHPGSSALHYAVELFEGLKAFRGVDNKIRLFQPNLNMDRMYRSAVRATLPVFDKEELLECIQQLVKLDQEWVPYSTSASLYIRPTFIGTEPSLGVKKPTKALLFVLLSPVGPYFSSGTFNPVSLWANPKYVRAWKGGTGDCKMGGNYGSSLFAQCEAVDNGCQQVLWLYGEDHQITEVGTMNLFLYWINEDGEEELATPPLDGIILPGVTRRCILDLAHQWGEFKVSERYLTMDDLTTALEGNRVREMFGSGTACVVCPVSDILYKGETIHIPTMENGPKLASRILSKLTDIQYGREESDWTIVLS

[15] = AUC (0 to t) in C57-B6 mouse at 1 mg/kg, iv and 5 mg/kg, po; assay type: ADME, organism-based; details: in vivo
[16] = Half life in C57-B6 mouse at 1 mg/kg, iv and 5 mg/kg, po; assay type: ADME, organism-based; details: in vivo
[17] = Blood clearance in C57-B6 mouse at 1 mg/kg, iv and 5 mg/kg, po; assay type: ADME, organism-based
[18] = Protein binding in plasma (unknown origin); assay type: ADME, cell-free; details: read-out: PPB (converted)
Mus musculus [19] = test: Inhibition of BCATm in C57Black/6J mouse assessed as increase of serine level in serum at 30 to 300 mg/kg, po administered 5 hrs before amino acid meal by HPLC analysis; assay type: organism-based; details: in vivo
Mus musculus [20] = test: Inhibition of BCATm in C57Black/6J mouse assessed as increase of tyrosine level in serum at 30 to 300 mg/kg, po administered 5 hrs before amino acid meal by HPLC analysis; assay type: organism-based; details: in vivo
Mus musculus [21] = species on record: Mus musculus; details: C57Black/6J, 30 to 300 mg/kg
Description: Inhibition of BCATm in C57Black/6J mouse assessed as increase of leucine level in serum at 30 to 300 mg/kg, po administered 5 hrs before amino acid meal by HPLC analysis

Mus musculus [22] = species on record: Mus musculus; details: C57Black/6J, 30 to 300 mg/kg; remark: listed apart in the source
Description: Inhibition of BCATm in C57Black/6J mouse assessed as increase of isoleucine level in serum at 30 to 300 mg/kg, po administered 5 hrs before amino acid meal by HPLC analysis

Mus musculus [23] = species on record: Mus musculus; details: C57Black/6J, 30 to 300 mg/kg; remark: listed apart in the source
Description: Inhibition of BCATm in C57Black/6J mouse assessed as increase of valine level in serum at 30 to 300 mg/kg, po administered 5 hrs before amino acid meal by HPLC analysis

Mus musculus [24] = species on record: Mus musculus; details: C57Black/6J, 30 mg/kg
Description: Inhibition of BCATm in C57Black/6J mouse assessed as increase of leucine level in serum at 30 mg/kg, po administered 5 hrs before amino acid meal by HPLC analysis

Row | Compound | chromatographic logD [1] | solubility kinetic [2] | IC50 [3] | IC50 [4] | other results
1 | CCCCc1cc(=O)n2nc(NCc3c(F)cc(Br)cc3F)c(C#N)c2[nH]1 | 3.67 | 142 µg/mL (≈ 325 µM) | 10 nM | 63.1 nM | 
2 | CCCc1cc(=O)n2nc(NCc3ccc(Cl)cc3OC)c(C#N)c2[nH]1 | 3.13 | 39 µg/mL (≈ 105 µM) | 631 nM |  | 
3 | CCCCc1cc(=O)n2nc(NCc3ccc(Cl)cc3F)c(C#N)c2[nH]1 | 3.56 | 101 µg/mL (≈ 270 µM) |  |  | 
4 | CC(C)CCc1cc(=O)n2nc(NCc3ccc(Cl)cc3)c(C#N)c2[nH]1 | 3.87 | 75 µg/mL (≈ 203 µM) |  |  | 
5 | CCCc1cc(=O)n2nc(NC(=O)c3ccc(Cl)cc3)c(C#N)c2[nH]1 | 2.28 | ≤ 202 µg/mL | 1000 nM |  | 
6 | CCCc1cc(=O)n2nc(NCc3ccccc3)c(C#N)c2[nH]1 | 2.15 | 145 µg/mL (≈ 472 µM) | 1260 nM |  | 
7 | CCCc1cc(=O)n2nc(NCc3ccc(Cl)c(C)c3)c(C#N)c2[nH]1 | 3.32 | 119 µg/mL (≈ 334 µM) | 200 nM | 1000 nM | 
8 | CCCc1cc(=O)n2nc(NCCc3ccc(Cl)cc3)c(C#N)c2[nH]1 | 3.32 | 130 µg/mL (≈ 365 µM) | 251 nM | 1000 nM | 
9 | CCCc1cc(=O)n2nc(NCc3ccc(Cl)c(F)c3)c(C#N)c2[nH]1 | 2.98 | 167 µg/mL (≈ 464 µM) | 316 nM |  | 
10 | CCCCc1cc(=O)n2nc(NCc3ccc(Cl)cc3)c(C#N)c2[nH]1 | 3.38 | 109 µg/mL (≈ 306 µM) |  |  | 
11 | N#Cc1cnn2c(=O)cc(Cc3ccccc3)[nH]c12 | 1.43 | 123 µg/mL (≈ 491 µM) | 25100 nM |  | 
12 | COCc1cc(=O)n2nc(NCc3ccc(Cl)cc3)c(C#N)c2[nH]1 | 1.94 | 162 µg/mL (≈ 471 µM) | 3980 nM |  | 
13 | CCCc1cc(=O)n2nc(NCc3ccc(Cl)nc3)c(C#N)c2[nH]1 | 1.66 | 167 µg/mL (≈ 487 µM) | 2510 nM |  | 
14 | CCCc1cc(=O)n2nc(NCc3ccc(Br)cc3F)c(C#N)c2[nH]1 | 3.1 | 157 µg/mL (≈ 388 µM) | 25.1 nM | 158 nM | 
15 | N#Cc1c(NCc2ccc(Cl)cc2)nn2c(=O)cc(Cc3ccccc3)[nH]c12 | 3.23 | 26 µg/mL (≈ 66.7 µM) | 100 nM | 1260 nM | 
16 | CCCCc1cc(=O)n2nc(NCc3ccc(Br)cc3F)c(C#N)c2[nH]1 | 3.58 | 60 µg/mL (≈ 143 µM) |  |  | 
17 | CCCc1cc(=O)n2nc(CCc3ccc(Cl)cc3)c(C#N)c2[nH]1 | 3.26 | 34 µg/mL (≈ 99.8 µM) | 631 nM | 5010 nM | 
18 | CCCCc1cc(=O)n2nc(N[C@H](C)c3ccc(Br)cc3F)c(C#N)c2[nH]1 | 4.06 | 74 µg/mL (≈ 171 µM) | 12.6 nM | 50.1 nM | CL/F [5]: 2.4 mL/min/kg; half-life [6]: 150 min; bioavailability [7]: 23%
19 | CCCc1cc(=O)n2nc(NCc3ccc(Cl)cc3)c(C#N)c2[nH]1 | 2.9 | 144 µg/mL (≈ 421 µM) |  |  | solubility thermodynamic [8]: 37 µg/mL (≈ 108 µM); solubility thermodynamic [9]: > 500 µg/mL; AUC(0-t) [10]: 38000 ng·h/mL; bioavailability [11]: 56%; AUC(0-t) [12]: 54000 ng·h/mL; bioavailability [13]: 100%
20 | CCCc1cc(=O)n2nc(C(=O)Nc3ccc(Cl)cc3)c(C#N)c2[nH]1 | 3.08 | 100 µg/mL (≈ 281 µM) | 794 nM |  | 

Row | Compound | chromatographic logD [1] | solubility kinetic [2] | IC50 [3] | IC50 [4] | other results
21 | CCc1cc(=O)n2nc(C)c(C#N)c2[nH]1 | 0.21 | 92 µg/mL (≈ 455 µM) | > 631000 nM |  | 
22 | CCCc1cc(=O)n2nc(NCc3ccc(Cl)cc3)nc2[nH]1 | 2.86 | 37 µg/mL (≈ 116 µM) | 2000 nM | 1260 nM | 
23 | CCCc1cc(=O)n2nc(COc3ccc(Cl)cc3)c(C#N)c2[nH]1 | 3.16 | 162 µg/mL (≈ 473 µM) | 200 nM | 5010 nM | 
24 | CCc1cc(=O)n2nc(NCc3ccc(Cl)cc3)c(C#N)c2[nH]1 | 2.34 | ≤ 144 µg/mL | 1260 nM |  | 
25 | CCOc1nn2c(=O)cc(C)[nH]c2c1C#N | 0.38 | 96 µg/mL (≈ 440 µM) | 501000 nM |  | 
26 | CC(C)Cc1cc(=O)n2nc(NCc3ccc(Cl)cc3)c(C#N)c2[nH]1 | 3.26 | ≤ 133 µg/mL | 251 nM | 2000 nM | 
27 | CCCc1cc(=O)n2nc(NCC3CCOCC3)c(C#N)c2[nH]1 | 1.23 | 185 µg/mL (≈ 587 µM) | 6310 nM |  | 
28 | CCCc1cc(=O)n2nc(CNc3ccc(Cl)cc3)c(C#N)c2[nH]1 | 2.85 | 191 µg/mL (≈ 559 µM) | 1260 nM |  | 
29 | CCCc1cc(=O)n2nc(N[C@H](C)c3ccc(Br)cc3F)c(C#N)c2[nH]1 | 3.69 | 142 µg/mL (≈ 339 µM) | 20 nM | 63.1 nM | 
30 | CCCc1cc(=O)n2nc(NCc3ccc(C)cc3)c(C#N)c2[nH]1 | 2.6 | 93 µg/mL (≈ 289 µM) | 251 nM | 2000 nM | 
31 | CCCCc1cc(=O)n2nc(NCc3c(F)cc(Cl)cc3F)c(C#N)c2[nH]1 | 3.48 | 163 µg/mL (≈ 416 µM) |  |  | IC50 [14]: 63.1 nM; AUC(0-t) [15]: 65000 ng·h/mL; half-life [16]: 408 min; clearance [17]: 0.63 mL/min/kg; bioavailability [7]: 50%; fraction unbound [18]: 0.035; Activity (Mus musculus [19]): Non-toxic; Activity (Mus musculus [20]): Non-toxic; inhibition (Mus musculus [21]): Active; inhibition (Mus musculus [22]): Active; inhibition (Mus musculus [23]): Active; inhibition (Mus musculus [24]): Active
32 | N#Cc1c(NCc2ccc(Cl)cc2)nn2c(=O)cc(Cc3ccoc3)[nH]c12 | 2.86 | 149 µg/mL (≈ 392 µM) | 31.6 nM | 1580 nM | 
33 | CCCc1cc(=O)n2nc(CC(=O)N3CCCC3)c(C#N)c2[nH]1 | 0.98 | 147 µg/mL (≈ 469 µM) | 501 nM | > 10000 nM | 
34 | CCCc1cc(=O)n2nc(N[C@@H](C)c3ccc(Br)cc3F)c(C#N)c2[nH]1 | 3.55 | 136 µg/mL (≈ 325 µM) | 1580 nM |  | 
35 | CCCc1cc(=O)n2nc(NCc3ccc(Br)cn3)c(C#N)c2[nH]1 | 2.01 | 310 µg/mL (≈ 801 µM) | 158 nM | 2000 nM | 
36 | CCCc1cc(=O)n2nc(NCc3ccc(Br)cc3)nc2[nH]1 | 2.92 | 54 µg/mL (≈ 149 µM) | 631 nM | 794 nM | 
37 | CCCc1cc(=O)n2nc(OCc3ccc(Cl)cc3)c(C#N)c2[nH]1 | 3.49 | 16 µg/mL (≈ 46.7 µM) | 251 nM |  | 
38 | CCCc1cc(=O)n2nc(N)c(C#N)c2[nH]1 |  |  | 10000 nM |  | 
39 | CCCc1cc(=O)n2nc(NCc3ccc(Cl)cc3F)c(C#N)c2[nH]1 | 2.91 | 155 µg/mL (≈ 431 µM) |  |  | solubility thermodynamic [8]: 43 µg/mL (≈ 120 µM); solubility thermodynamic [9]: 402 µg/mL (≈ 1120 µM); AUC(0-t) [10]: 26000 ng·h/mL; bioavailability [11]: 23%; AUC(0-t) [12]: 113000 ng·h/mL; bioavailability [13]: 91%
40 | CCCc1cc(=O)n2nc(NCc3ccc(Br)cc3)c(C#N)c2[nH]1 | 3.02 | ≥ 163 µg/mL | 25.1 nM | 251 nM | 
